From ChEMBL document CHEMBL3885881, “DrugMatrix”

Species: Rattus norvegicus
Assay: DrugMatrix - Regimen: Daily Repeat
Format: toxicity, organism-based, Sprague-Dawley
Set-up: regimen Daily Repeat, gender Male, age 6-8 weeks
Conditions: in vivo, po, route oral GAVAGE, vehicle .5 % CMC; for ABSOLUTE BASOPHIL / ABSOLUTE EOSINOPHIL / ABSOLUTE LYMPHOCYTE / ABSOLUTE MONOCYTE / ABSOLUTE SEGMENTED NEUTROPHIL / BASOPHIL / EOSINOPHIL / ERYTHROCYTE COUNT / HEMATOCRIT / HEMOGLOBIN / LEUKOCYTE COUNT / LYMPHOCYTE / MEAN CORPUSCULAR HEMOGLOBIN / MEAN CORPUSCULAR HEMOGLOBIN CONCENTRATION / MEAN CORPUSCULAR VOLUME / MONOCYTE / NEUTROPHIL / NUCLEATED RED BLOOD CELLS / PLATELET COUNT: tissue Blood; for ALANINE AMINOTRANSFERASE / ALBUMIN / ALKALINE PHOSPHATASE / ASPARTATE AMINOTRANSFERASE / BLOOD UREA NITROGEN / CARBON DIOXIDE / CHLORIDE / CHOLESTEROL / CREATINE PHOSPHOKINASE / CREATININE / GLUCOSE / LACTATE DEHYDROGENASE / LIPASE / PHOSPHORUS / POTASSIUM / SODIUM / TOTAL BILIRUBIN / TOTAL PROTEIN / URIC ACID: tissue Plasma
[1] = 170 mg/kg, 72 h, dose level Low, time 3 day
[2] = 170 mg/kg, 120 h, dose level Low, time 5 day
[3] = 1700 mg/kg, 72 h, dose level High, time 3 day
[4] = 1700 mg/kg, 120 h, dose level High, time 5 day

O=C(O)c1ccccc1 [BENZOIC ACID]
ABSOLUTE BASOPHIL [1]: 0 CELLS/uL
ABSOLUTE EOSINOPHIL [1]: 0 CELLS/uL
ABSOLUTE LYMPHOCYTE [1]: 11616 CELLS/uL
ABSOLUTE MONOCYTE [1]: 0 CELLS/uL
ABSOLUTE SEGMENTED NEUTROPHIL [1]: 1417.33 CELLS/uL
BASOPHIL [1]: 0%
EOSINOPHIL [1]: 0%
ERYTHROCYTE COUNT [1]: 5.44 x10E6/uL
HEMATOCRIT [1]: 34.03%
HEMOGLOBIN [1]: 13.07 G/DL
LEUKOCYTE COUNT [1]: 13.03 x10E3/uL
LYMPHOCYTE [1]: 89.33%
MEAN CORPUSCULAR HEMOGLOBIN [1]: 24.03 pg
MEAN CORPUSCULAR HEMOGLOBIN CONCENTRATION [1]: 38.4 G/DL
MEAN CORPUSCULAR VOLUME [1]: 62.6 fL
MONOCYTE [1]: 0%
NEUTROPHIL [1]: 10.67%
NUCLEATED RED BLOOD CELLS [1]: 0 /100WBC
PLATELET COUNT [1]: 1319.33 x10E3/uL
ALANINE AMINOTRANSFERASE [1]: 59.67 u/L
ALBUMIN [1]: 4.13 G/DL
ALKALINE PHOSPHATASE [1]: 380 u/L
ASPARTATE AMINOTRANSFERASE [1]: 88 u/L
BLOOD UREA NITROGEN [1]: 17 mg/dL
CARBON DIOXIDE [1]: 29.33 mmol/L
CHLORIDE [1]: 100.67 MEQ/L
CHOLESTEROL [1]: 99 mg/dL
CREATINE PHOSPHOKINASE [1]: 286 u/L
CREATININE [1]: 0.23 mg/dL
GLUCOSE [1]: 150 mg/dL
LACTATE DEHYDROGENASE [1]: 280 u/L
LIPASE [1]: 10 u/L
PHOSPHORUS [1]: 13.27 mg/dL
POTASSIUM [1]: 6.52 MEQ/L
SODIUM [1]: 146.37 MEQ/L
TOTAL BILIRUBIN [1]: 0.17 mg/dL
TOTAL PROTEIN [1]: 5.97 G/DL
URIC ACID [1]: 1.6 mg/dL
ABSOLUTE BASOPHIL [2]: 0 CELLS/uL
ABSOLUTE EOSINOPHIL [2]: 64 CELLS/uL
ABSOLUTE LYMPHOCYTE [2]: 17040 CELLS/uL
ABSOLUTE MONOCYTE [2]: 0 CELLS/uL
ABSOLUTE SEGMENTED NEUTROPHIL [2]: 1696 CELLS/uL
BASOPHIL [2]: 0%
EOSINOPHIL [2]: 0.33%
ERYTHROCYTE COUNT [2]: 5.48 x10E6/uL
HEMATOCRIT [2]: 35.33%
HEMOGLOBIN [2]: 13.8 G/DL
LEUKOCYTE COUNT [2]: 18.8 x10E3/uL
LYMPHOCYTE [2]: 90.67%
MEAN CORPUSCULAR HEMOGLOBIN [2]: 25.23 pg
MEAN CORPUSCULAR HEMOGLOBIN CONCENTRATION [2]: 39.07 G/DL
MEAN CORPUSCULAR VOLUME [2]: 64.5 fL
MONOCYTE [2]: 0%
NEUTROPHIL [2]: 9%
NUCLEATED RED BLOOD CELLS [2]: 0 /100WBC
PLATELET COUNT [2]: 1165 x10E3/uL
ALANINE AMINOTRANSFERASE [2]: 57.33 u/L
ALBUMIN [2]: 4.23 G/DL
ALKALINE PHOSPHATASE [2]: 352 u/L
ASPARTATE AMINOTRANSFERASE [2]: 96.67 u/L
BLOOD UREA NITROGEN [2]: 15.67 mg/dL
CARBON DIOXIDE [2]: 24 mmol/L
CHLORIDE [2]: 103.67 MEQ/L
CHOLESTEROL [2]: 79 mg/dL
CREATINE PHOSPHOKINASE [2]: 445 u/L
CREATININE [2]: 0.21 mg/dL
GLUCOSE [2]: 164.67 mg/dL
LACTATE DEHYDROGENASE [2]: 554.67 u/L
LIPASE [2]: 9.67 u/L
PHOSPHORUS [2]: 12.87 mg/dL
POTASSIUM [2]: 6.28 MEQ/L
SODIUM [2]: 144.9 MEQ/L
TOTAL BILIRUBIN [2]: 0.23 mg/dL
TOTAL PROTEIN [2]: 6.17 G/DL
URIC ACID [2]: 2.2 mg/dL
ABSOLUTE BASOPHIL [3]: 0 CELLS/uL
ABSOLUTE EOSINOPHIL [3]: 95.33 CELLS/uL
ABSOLUTE LYMPHOCYTE [3]: 13599.67 CELLS/uL
ABSOLUTE MONOCYTE [3]: 51.33 CELLS/uL
ABSOLUTE SEGMENTED NEUTROPHIL [3]: 1753.67 CELLS/uL
BASOPHIL [3]: 0%
EOSINOPHIL [3]: 0.67%
ERYTHROCYTE COUNT [3]: 6 x10E6/uL
HEMATOCRIT [3]: 35.93%
HEMOGLOBIN [3]: 14.17 G/DL
LEUKOCYTE COUNT [3]: 15.5 x10E3/uL
LYMPHOCYTE [3]: 87.67%
MEAN CORPUSCULAR HEMOGLOBIN [3]: 23.6 pg
MEAN CORPUSCULAR HEMOGLOBIN CONCENTRATION [3]: 39.43 G/DL
MEAN CORPUSCULAR VOLUME [3]: 59.9 fL
MONOCYTE [3]: 0.33%
NEUTROPHIL [3]: 11.33%
NUCLEATED RED BLOOD CELLS [3]: 0 /100WBC
PLATELET COUNT [3]: 1304 x10E3/uL
ALANINE AMINOTRANSFERASE [3]: 84.67 u/L
ALBUMIN [3]: 4.3 G/DL
ALKALINE PHOSPHATASE [3]: 341.67 u/L
ASPARTATE AMINOTRANSFERASE [3]: 125.33 u/L
BLOOD UREA NITROGEN [3]: 16 mg/dL
CARBON DIOXIDE [3]: 30.67 mmol/L
CHLORIDE [3]: 97.33 MEQ/L
CHOLESTEROL [3]: 63.67 mg/dL
CREATINE PHOSPHOKINASE [3]: 240.33 u/L
CREATININE [3]: 0.2 mg/dL
GLUCOSE [3]: 149 mg/dL
LACTATE DEHYDROGENASE [3]: 314.33 u/L
LIPASE [3]: 9.33 u/L
PHOSPHORUS [3]: 13.87 mg/dL
POTASSIUM [3]: 6.31 MEQ/L
SODIUM [3]: 144.83 MEQ/L
TOTAL BILIRUBIN [3]: 0.23 mg/dL
TOTAL PROTEIN [3]: 5.73 G/DL
URIC ACID [3]: 1.6 mg/dL
ABSOLUTE BASOPHIL [4]: 0 CELLS/uL
ABSOLUTE EOSINOPHIL [4]: 54.33 CELLS/uL
ABSOLUTE LYMPHOCYTE [4]: 15272.67 CELLS/uL
ABSOLUTE MONOCYTE [4]: 230 CELLS/uL
ABSOLUTE SEGMENTED NEUTROPHIL [4]: 2109.67 CELLS/uL
BASOPHIL [4]: 0%
EOSINOPHIL [4]: 0.33%
ERYTHROCYTE COUNT [4]: 5.71 x10E6/uL
HEMATOCRIT [4]: 34.87%
HEMOGLOBIN [4]: 14.07 G/DL
LEUKOCYTE COUNT [4]: 17.67 x10E3/uL
LYMPHOCYTE [4]: 86.33%
MEAN CORPUSCULAR HEMOGLOBIN [4]: 24.67 pg
MEAN CORPUSCULAR HEMOGLOBIN CONCENTRATION [4]: 40.33 G/DL
MEAN CORPUSCULAR VOLUME [4]: 61.07 fL
MONOCYTE [4]: 1.33%
NEUTROPHIL [4]: 12%
NUCLEATED RED BLOOD CELLS [4]: 0 /100WBC
PLATELET COUNT [4]: 1192 x10E3/uL
ALANINE AMINOTRANSFERASE [4]: 71 u/L
ALBUMIN [4]: 4.37 G/DL
ALKALINE PHOSPHATASE [4]: 303 u/L
ASPARTATE AMINOTRANSFERASE [4]: 113.33 u/L
BLOOD UREA NITROGEN [4]: 18.67 mg/dL
CARBON DIOXIDE [4]: 27.67 mmol/L
CHLORIDE [4]: 103.33 MEQ/L
CHOLESTEROL [4]: 67.33 mg/dL
CREATINE PHOSPHOKINASE [4]: 298.67 u/L
CREATININE [4]: 0.19 mg/dL
GLUCOSE [4]: 164.33 mg/dL
LACTATE DEHYDROGENASE [4]: 269.33 u/L
LIPASE [4]: 10 u/L
PHOSPHORUS [4]: 14 mg/dL
POTASSIUM [4]: 6.25 MEQ/L
SODIUM [4]: 149.6 MEQ/L
TOTAL BILIRUBIN [4]: 0.2 mg/dL
TOTAL PROTEIN [4]: 5.8 G/DL
URIC ACID [4]: 1.67 mg/dL
